# Measured values taken from US11202757B2, “Dry powder compositions for intranasal delivery” (Formulex Pharma Innovations Ltd., priority 2017, dated 2021).
# Where a name gives a salt, the structure may show the parent alone.
# Test: Particle size analysis (Malvern laser diffraction)
# Format: physicochemical
# Settings: for size range of the active agent particle population: laser diffraction, active agent population of the composition
# Experimental: (§1) The spray-drying process was carried out using the Mini Spray Dryer B-290 of Büchi Labortechnik AG. A magnetic stirrer (Fried Electric) was placed under the receiver (receiving chamber), a magnetic bar of appropriate size was inserted into the receiver, and then the diluent was added. […] Quantification was performed using HPLC and a Dionex HPLC instrument. A FEI Quanta-200 Scanning Electron Microscope (SEM) equipped with an Everhart-Thornley Detector was used to obtain the images of the spray-dried powder. The accelerating voltage of 20 kV was applied to provide magnification from 250 to 10,000 times. In addition, an X-ray Element Analysis Detector (Link ISIS, Oxford Instruments, GB) was used to determine the drug and particle identity and their distribution throughout DPI. Particle size was measured using the Malvern Mastersizer 3000 series based on the Light Diffraction method.
# as §1, with “England)” for “GB)”
# [1] = estimated in the range of 0-40 μm
compound,measurement,setting,value
C=CCN1CC[C@]23c4c5ccc(O)c4O[C@H]2C(=O)CC[C@@]3(O)[C@H]1C5 [naloxone hydrochloride],size range of the active agent particle population,,5-30 μm
COc1ccc2c3c1O[C@H]1C(=O)CC[C@@]4(O)[C@@H](C2)N(C)CC[C@]314.Cl [oxycodone hydrochloride],size range of the active agent particle population,,3-30 μm
CC(=O)Nc1ccc(O)cc1 [paracetamol],size range of the active agent particle population,,2-30 μm
CNS(=O)(=O)Cc1ccc2[nH]cc(CCN(C)C)c2c1 [sumatriptan succinate],D(10) of sumatriptan succinate alone,[1],5.2 μm
same,D(50) of sumatriptan succinate alone,[1],11.2 μm
same,D(90) of sumatriptan succinate alone,[1],20.1 μm
same,D(99) of sumatriptan succinate alone,[1],27.1 μm
same,size range of the active agent particle population,,5-25 μm
insulin-sodium chloride: small spherical particles of insulin-sodium chloride in the insulin composition,size range of the active agent particle population,,5-35 μm
